The values that follow come from PMC6934184, “Selective DNA-PKcs inhibition extends the therapeutic index of localized radiotherapy and chemotherapy” (The Journal of Clinical Investigation, 2019).

The target in the experiment is T1, STK4 (MST1) (Homo sapiens, UniProt Q13043).
T1 construct: purchased Thermo Fisher Scientific (Life Technologies) SelectScreen
The experiment in a line: SelectScreen Z'LYTE. The experiment is classed as biochemical. In a few lines: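 SelectScreen broad panel; activity (Z'LYTE, Adapta) plus binding formats. ATP: Km app for CSF1R Z'LYTE; 10 for CAMK1 Adapta. Readout = % per kinase.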

The structures appear in SMILES notation.

T1 sequence (Q13043 whole entry): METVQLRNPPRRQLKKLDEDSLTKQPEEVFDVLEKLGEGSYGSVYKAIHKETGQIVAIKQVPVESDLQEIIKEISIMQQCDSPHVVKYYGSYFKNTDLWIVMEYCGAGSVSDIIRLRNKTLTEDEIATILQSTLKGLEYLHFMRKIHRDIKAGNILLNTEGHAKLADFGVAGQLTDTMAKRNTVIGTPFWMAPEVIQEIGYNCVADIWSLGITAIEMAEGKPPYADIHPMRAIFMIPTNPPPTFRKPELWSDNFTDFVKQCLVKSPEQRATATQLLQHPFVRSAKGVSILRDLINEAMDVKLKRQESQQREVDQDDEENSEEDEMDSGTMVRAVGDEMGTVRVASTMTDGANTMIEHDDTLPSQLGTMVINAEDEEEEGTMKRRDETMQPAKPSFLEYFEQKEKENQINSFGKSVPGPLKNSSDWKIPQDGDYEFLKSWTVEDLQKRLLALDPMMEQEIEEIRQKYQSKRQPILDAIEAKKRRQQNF

Usually inhibition stands for the drop in the measured response relative to a control, in per cent. Take `CN(C(=O)CN1CCOCC1)c1ccc2sc3c(-c4cccc5c(=O)cc(N6CC7CCC(C6)O7)oc45)cccc3c2c1` [NU5455]: the inhibition at 1 µM is -4.4%.
